For the test, the target named is CgiNAP2X1 (Magallana gigas, UniProt A0A8W8INI3). Description: stopped-flow CO2 hydration assay. The class given is biochemical.
Where [1] appears, read: read-out: KIs [mM] ^2 / CgiNAP2X1.

Read-outs that look alike come from different tables or passages of the source.

Sequence of CgiNAP2X1 (A0A8W8INI3 23-318 limits assumed): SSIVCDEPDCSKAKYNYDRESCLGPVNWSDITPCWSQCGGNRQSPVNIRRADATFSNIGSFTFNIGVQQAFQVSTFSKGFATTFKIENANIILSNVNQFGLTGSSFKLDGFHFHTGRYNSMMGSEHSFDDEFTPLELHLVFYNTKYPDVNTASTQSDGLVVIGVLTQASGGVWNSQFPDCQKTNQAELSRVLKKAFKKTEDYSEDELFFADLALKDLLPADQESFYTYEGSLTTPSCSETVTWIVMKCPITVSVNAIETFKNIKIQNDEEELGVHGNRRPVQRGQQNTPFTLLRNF

Regarding `NS(=O)(=O)O` [sulfamate], the Ki under setting [1] is 0.073 mM.
Compound `S` [HS^−] gave a Ki of 8.19 mM.
Same read-out and setting: for `N#C[SeH]` [SeCN^−] the value was 8.21 mM; for `I` [I^−], 8.86 mM.
Compound `O=NO` [NO2^−] showed a Ki of 7.14 mM.
`O=S(=O)(O)C(F)(F)F` [CF3SO3^−] yielded a Ki of 8.68 mM.
In turn, `Cl` [Cl^−] gave a Ki of 10.8 mM.
Consider `N#CS` [SCN^−], for which the Ki amounted to 5.88 mM.
On the same count and under the same terms, for `[O]=[Sn]([OH])[OH]` [SnO3^2−] the value was 3.47 mM; for `OB(O)c1ccccc1` [phenylboronic acid], 0.072 mM.
The same measure, in the same setting: for `N#CO` [CNO^−] the value was 3.11 mM.
For `NS(N)(=O)=O` [sulfamide], under setting [1], the Ki came to 0.076 mM.

Values taken from paper PMC5618409, “Sequence Analysis, Kinetic Constants, and Anion Inhibition Profile of the Nacrein-Like Protein (CgiNAP2X1) from the Pacific Oyster Magallana gigas (Ex-Crassostrea gigas)” (Marine Drugs, 2017).
